Test results: patent US20240316047A1, “INHIBITORS OF RNA HELICASE DHX9 AND USES THEREOF” (ACCENT THERAPEUTICS, INC., priority 2022, published 2024)
Where two headings read alike, the source gives them in different places.

Key:
[1] = biological target: Human recombinant DHX9 protein (Homo sapiens (Human), UniProt Q08211); assay: DHX9 ATPase assay (ADP-Glo); format: biochemical; settings: for IC50: read-out: DHX9 Biochemical Inflection Point
[2] = test system: circBRIP1 in HCT116 cells; assay: DHX9 circBRIP1 cellular target engagement SYBR Green assay; format: cell-based
[3] = test system: circBRIP1 in HCT116 cells; assay: DHX9 circBRIP1 cellular target engagement TaqMan multiplex assay; format: cell-based; settings: read-out: DHX9 Cellular Target Engagement
[4] = test system: LS411N cells; assay: DHX9 cellular proliferation assay (CellTiter-Glo), LS411N (CRC-MSI); format: cell-based; settings: performed at Pharmaron, read-out: LS411N (CRC-MSI-H) Antiproliferative
[5] = test system: NCI-H747 cells; assay: DHX9 cellular proliferation assay (CellTiter-Glo), NCI-H747 (CRC-MSS); format: cell-based; settings: read-out: H747 (CRC-MSS) Antiproliferative
[6] = values marked +, read-out: DHX9 Cellular Target Engagement EC50
[7] = Homo sapiens, HCT-116, Taqman assay (*)
[8] = Homo sapiens, NCI-H747, performed at Pharmaron
[9] = Homo sapiens, HCT-116, values marked +, read-out: DHX9 Cellular Target Engagement EC50
[10] = Homo sapiens, HCT-116, SyBr assay (^+), read-out: DHX9 Cellular Target Engagement

Sequence of Human recombinant DHX9 protein (Q08211 whole entry): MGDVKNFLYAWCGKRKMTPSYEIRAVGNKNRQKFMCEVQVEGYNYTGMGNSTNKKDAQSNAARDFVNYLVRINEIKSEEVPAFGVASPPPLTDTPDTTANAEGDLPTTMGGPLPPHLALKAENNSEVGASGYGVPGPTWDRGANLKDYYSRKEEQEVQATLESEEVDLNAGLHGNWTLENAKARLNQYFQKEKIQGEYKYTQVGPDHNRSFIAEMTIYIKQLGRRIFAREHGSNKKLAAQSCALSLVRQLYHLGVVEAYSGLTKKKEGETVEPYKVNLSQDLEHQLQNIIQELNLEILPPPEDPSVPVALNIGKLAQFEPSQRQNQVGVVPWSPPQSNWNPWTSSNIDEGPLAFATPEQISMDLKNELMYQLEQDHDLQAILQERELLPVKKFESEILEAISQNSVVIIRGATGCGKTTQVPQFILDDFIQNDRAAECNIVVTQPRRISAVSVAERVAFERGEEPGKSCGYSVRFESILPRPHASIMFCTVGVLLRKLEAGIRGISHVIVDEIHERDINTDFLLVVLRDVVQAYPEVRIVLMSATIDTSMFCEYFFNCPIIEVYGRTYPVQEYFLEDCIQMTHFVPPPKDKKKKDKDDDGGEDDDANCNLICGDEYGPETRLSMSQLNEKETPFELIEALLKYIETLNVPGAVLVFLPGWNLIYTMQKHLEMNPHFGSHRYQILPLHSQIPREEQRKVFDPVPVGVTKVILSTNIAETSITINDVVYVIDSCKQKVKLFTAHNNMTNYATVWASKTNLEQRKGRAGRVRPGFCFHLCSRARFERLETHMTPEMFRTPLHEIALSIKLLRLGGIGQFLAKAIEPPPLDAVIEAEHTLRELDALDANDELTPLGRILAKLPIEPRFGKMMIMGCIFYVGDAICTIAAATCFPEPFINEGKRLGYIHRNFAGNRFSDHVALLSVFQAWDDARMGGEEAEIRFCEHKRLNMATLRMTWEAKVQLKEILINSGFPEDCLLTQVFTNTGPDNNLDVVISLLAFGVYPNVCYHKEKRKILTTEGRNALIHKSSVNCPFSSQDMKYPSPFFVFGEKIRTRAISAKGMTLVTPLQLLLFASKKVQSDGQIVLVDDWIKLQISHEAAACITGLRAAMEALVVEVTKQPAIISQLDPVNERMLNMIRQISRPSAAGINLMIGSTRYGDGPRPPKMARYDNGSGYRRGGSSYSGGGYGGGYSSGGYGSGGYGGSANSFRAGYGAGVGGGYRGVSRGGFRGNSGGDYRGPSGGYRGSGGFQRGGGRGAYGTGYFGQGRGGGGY

| DHX9 Biochemical Max Inhibition [1] | IC50 [1] | SMILES | other results |
| --- | --- | --- | --- |
| 58.1 | 537 nM | CC(Oc1cccnc1-c1cc(C(=O)Nc2cc(Cl)cc(NS(C)(=O)=O)c2)cn1C)c1cc(F)cc(C(F)(F)F)c1 (single isomer, unassigned) [Example 628, N-(3-chloro-5-methanesulfonamidophenyl)-5-{3-[1-[3-fluoro-5-(trifluoromethyl)phenyl]ethoxy]pyridin-2-yl}-1-methyl-1H-pyrrole-3-carboxamide] | EC50 ([3]; Taqman assay (*)): 1080 nM |
| 74.8 | 28.9 nM | CC(Oc1cccnc1-c1cc(C(=O)Nc2cc(Cl)cc(NS(C)(=O)=O)c2)cn1C)c1cc(F)cc(C(F)(F)F)c1 (single isomer, unassigned) [Example 629, N-(3-chloro-5-methanesulfonamidophenyl)-5-{3-[1-[3-fluoro-5-(trifluoromethyl)phenyl]ethoxy]pyridin-2-yl}-1-methyl-1H-pyrrole-3-carboxamide] | EC50 ([3]; Taqman assay (*)): 112 nM |
| 64.4 | 31.2 nM | Cc1sc(C(=O)Nc2cc(Cl)cc(NS(C)(=O)=O)c2)cc1-c1ncccc1OC(C)c1cncc(F)c1 (single isomer, unassigned) [Example 631] | IC50 ([4]; Homo sapiens, LS-411N): 156 nM; EC50 [3, 7]: 59.3 nM; IC50 [5, 8]: 4880 nM |
| 82.4% | 3.2 nM | CS(=O)(=O)Nc1cc(Cl)cc(NC(=O)c2cnn(-c3ncccc3OCc3cc(F)cc(F)c3)c2)c1 [Example 187] | EC50 [2, 6]: 50.4 nM |
| 66.3% | 49.1 nM | CS(=O)(=O)Nc1cc(Cl)cc(NC(=O)c2cnn(-c3ncccc3OCc3cccc(Br)c3)c2)c1 [Example 231] | EC50 [2, 9]: 203 nM |
| 77.5% | 20.2 nM | CCc1sc(C(=O)Nc2cc(Cl)cc(NS(C)(=O)=O)c2)cc1-c1ccccn1 [Example 232] | EC50 [2, 9]: 61 nM |
| 70.1% | 403 nM | CS(=O)(=O)Nc1cc(Cl)cc(NC(=O)c2cnn(-c3ncccc3OCc3cc(F)cc(F)c3)c2)c1 [Example 256] | EC50 [2, 6]: 2030 nM |
| 63 | 41.6 nM | Cc1cc(C(=O)Nc2cc(Cl)cc(NS(C)(=O)=O)c2)cn1-c1ncc(N2CCC(F)(F)C2)cc1F [Example 408] | IC50 ([4]; Homo sapiens, LS-411N): 215 nM; EC50 [3, 7]: 67.1 nM; IC50 [5, 8]: 8160 nM |
| 59.6 | 255 nM | CS(=O)(=O)Nc1cc(Cl)cc(NC(=O)c2cnn(-c3c(F)cc(F)cc3OCc3cnco3)c2)c1 [Example 429] | EC50 [2, 10]: 1180 nM |
| 74.9 | 142 nM | CS(=O)(=O)Nc1cc(F)cc(NC(=O)c2cnn(-c3ccccc3OCc3ccccc3)c2)c1 [Example 430] | EC50 [2, 10]: 1170 nM |
| 67.3 | 34.2 nM | Cc1sc(C(=O)Nc2cc(Cl)cc(NS(C)(=O)=O)c2)cc1-c1ncc(OC(C)C)cc1F [Example 455] | IC50 ([4]; Homo sapiens, LS-411N): 88.6 nM; EC50 [3, 7]: 57.6 nM; IC50 [5, 8]: 6780 nM |
| 60.9 | 131 nM | Cc1sc(C(=O)Nc2cc(Cl)cc(NS(C)(=O)=O)c2)cc1-c1ncc(N2CC(C(F)(F)F)C2)cc1F [Example 460, N-(3-chloro-5-(methylsulfonamido)phenyl)-4-(3-fluoro-5-(3-(trifluoromethyl)azetidin-1-yl)pyridin-2-yl)-5-methylthiophene-2-carboxamide] | IC50 [4]: 221 nM; EC50 ([3]; Taqman assay (*)): 58.6 nM |
| 68 | 46.8 nM | Cc1sc(C(=O)Nc2cc(Cl)cc(NS(C)(=O)=O)c2)cc1-c1ncc(N2CC(C(F)(F)F)C2)cc1F [Example 477] | IC50 [4]: 80.2 nM; EC50 ([3]; Taqman assay (*)): 24.2 nM; IC50 ([5]; performed at Pharmaron): 2520 nM |
| 57.7 | 204 nM | Cn1cc(C(=O)Nc2cc(Cl)cc(NS(C)(=O)=O)c2)cc1-c1ncc(N2CC3C(C2)C3(C)C)cc1F (stereo not drawn) [Example 516] | EC50 [3, 7]: 220 nM |
| 54.1 | 23.7 nM | CCS(=O)(=O)Nc1cc(Cl)cc(NC(=O)c2cc(-c3ncc(N4CC(F)(F)C4)cc3F)n(C)c2)c1 [Example 517] | IC50 ([4]; Homo sapiens, LS-411N): 135 nM; EC50 [3, 7]: 16.8 nM; IC50 [5, 8]: 2220 nM |
| 67 | 22.9 nM | Cc1sc(C(=O)Nc2cc(Cl)cc(NS(C)(=O)=O)c2)cc1-c1ncccc1OC(C)c1cncc(F)c1 (stereo not drawn) [Example 630] | IC50 [5, 8]: > 10000 nM |
| 66.5 | 3.9 nM | Cc1cc(C(=O)Nc2cc(Cl)cc(NS(C)(=O)=O)c2)cn1-c1ccc(N(C)C2CCOC2)cn1 (stereo not drawn) [Example 674] | IC50 [5, 8]: > 10000 nM |
| 71.2 | 4.1 nM | Cc1cc(C(=O)Nc2cc(Cl)cc(NS(C)(=O)=O)c2)cn1-c1ccc(N(C)C2CCOC2)cn1 (stereo not drawn) [Example 675] | IC50 [4]: 121 nM; EC50 ([2]; SyBr assay (^+), read-out: DHX9 Cellular Target Engagement): 23.2 nM; IC50 ([5]; performed at Pharmaron): > 10000 nM |

| DHX9 Biochemical Max Inhibition [1] | IC50 [1] | SMILES | other results |
| --- | --- | --- | --- |
| 72.6 | 25.2 nM | Cc1sc(C(=O)Nc2cc(Cl)cc(NS(C)(=O)=O)c2)cc1-c1ncc(N(C)S(C)(=O)=O)cn1 [Example 720] | – |
| 68.1 | 231 nM | CS(=O)(=O)Nc1cc(Cl)cc(NC(=O)c2cnn(-c3c(F)cccc3OCc3cnco3)c2)c1 [Example 721] | – |
| 74.4 | 19.1 nM | CS(=O)(=O)Nc1cc(Cl)cc(NC(=O)c2cnn(-c3ccc(N4CC5(COC5)C4)cc3OCc3cccc(F)c3)c2)c1 [Example 722] | – |
| 84.3 | 1.6 nM | CS(=O)(=O)Nc1cc(Cl)cc(NC(=O)c2cc(CO)n(-c3ncccc3OCc3cncc(F)c3)c2)c1 [Example 723] | – |
| 80.4 | 19.7 nM | Cc1nc(COc2cc(F)cnc2-c2cc(C(=O)Nc3cc(Cl)cc(NS(C)(=O)=O)c3)cn2C)cs1 [Example 724] | – |
| 74 | 36.5 nM | Cc1noc(C)c1COc1cc(F)cnc1-c1cc(C(=O)Nc2cc(Cl)cc(NS(C)(=O)=O)c2)cn1C [Example 725] | – |
| 88.1 | 17.5 nM | Cn1cc(C(=O)Nc2cc(Cl)cc(NS(C)(=O)=O)c2)cc1-c1ncc(F)cc1OCc1cnnn1C [Example 726] | – |
| 55.3 | 9030 nM | Cn1cc(C(=O)Nc2cc(Cl)cc(NS(C)(=O)=O)c2)cc1-c1ccccc1/C=C/c1cncc(F)c1 [Example 727] | – |
| 62.5 | 158 nM | Cn1cc(C(=O)Nc2cc(Cl)cc(NS(C)(=O)=O)c2)cc1-c1ncc(F)cc1CCc1cncc(F)c1 [Example 728] | EC50 [3, 7]: 1350 nM |
| 45.5 | 114 nM | Cn1cc(C(=O)Nc2cc(Cl)cc(NS(C)(=O)=O)c2)cc1-c1ncc(F)cc1/C=C/c1cncc(F)c1 [Example 729] | – |
| 72.6 | 11.7 nM | CCc1cncc(COc2cccnc2-c2cc(C(=O)Nc3cc(Cl)cc(NS(C)(=O)=O)c3)cn2C)c1 [Example 730] | – |
| 69.1 | 63.5 nM | CS(=O)(=O)Nc1cc(Cl)cc(NC(=O)c2cc(C(=O)N3CCOCC3)n(-c3ccccn3)c2)c1 [Example 731] | – |
| 70.8 | 10.5 nM | Cc1sc(C(=O)Nc2cc(Cl)cc(NS(C)(=O)=O)c2)cc1-c1ncc(F)cc1OCc1cnco1 [Example 732] | – |
| 61.3 | 21.8 nM | Cn1cc(C(=O)Nc2cc(Cl)cc(NS(C)(=O)=O)c2)cc1-c1ncc(N2CC(F)(F)C2)cc1OCc1cnco1 [Example 733] | – |
| 71.2 | 6.6 nM | Cc1ncc(OCc2cc(F)cc(F)c2)c(-c2cc(C(=O)Nc3cc(Cl)cc(NS(C)(=O)=O)c3)cn2C)n1 [Example 734] | – |
| 80.1 | 7 nM | CS(=O)(=O)Nc1cc(Cl)cc(NC(=O)c2cc(-c3ncc(F)cc3OCc3cncnc3)n(CC(F)(F)F)c2)c1 [Example 735] | – |
| 70.3 | 54.9 nM | Cc1sc(C(=O)Nc2cc(Cl)cc(NS(C)(=O)=O)c2)cc1-c1c(F)cc(F)c[n+]1[O-] [Example 736] | – |

| SMILES | DHX9 Biochemical Max Inhibition [1] | IC50 [1] | other results |
| --- | --- | --- | --- |
| CS(=O)(=O)Nc1cc(Cl)cc(NC(=O)c2cnn([C@@H]3CCCC[C@@H]3O)c2)c1 (relative stereo) [Example 153, N-(3-chloro-5-(methylsulfonamido)phenyl)-1-(2-cis-hydroxycyclohexyl)-1H-pyrazole-4-carboxamide] | 59.7% | 256 nM | EC50 [2, 6]: 6110 nM |
